The assay has as its system IgG-Fc (Fc fragment of IgG preparation derived from human plasma). The assay can be described thus: Biacore 3000 surface plasmon resonance analysis of the affinity of the low-molecular-weight compound for IgG-Fc. The following applies: IgG-Fc immobilized on sensor chip CM5; compound 25 μM to 100 μM in running buffer pH 7.4, 5% DMSO; 25° C.; 1:1 binding model fit. The procedure: An Fc fragment was prepared by fragmenting an IgG preparation derived from human plasma as a raw material into a Fab fragment and an Fc fragment using papain and separating the Fc fragment only to be purified. Gammagard, which is an IgG preparation derived from human plasma and which was manufactured by Baxter, was dissolved into a buffer solution for papain digestion which contained 0.1 M AcOH—AcONa, 2 mM EDTA and 1 mM cysteine and of which pH was 5.5, and Papain Agarose from papaya latex (papain-immobilized agarose, manufactured by SIGMA) was added to the solution. The mixture was mixed using a rotator and incubated at 37° C. for about 8 hours. The reaction mixture, which contained both of a Fab fragment and an Fc fragment, was separated from the papain-immobilized agarose. The Fc fragment was separated to be purified from the reaction mixture by affinity chromatography using Protein A column (MabSelect, manufactured by GE Healthcare Company). Hereinafter, the Fc fragment is referred to as “IgG-Fc”. Specifically, the reaction mixture, which contained both of a Fab fragment and an Fc fragment, was diluted with a phosphate buffer (20 mM NaH2PO4—Na2HPO4, 150 mM NaCl, pH 7.4) so that the pH became about 7.4. The diluted mixture was added to a Protein A column which was equilibrated using a phosphate buffer, and the column was washed with a phosphate buffer. Then, an IgG-Fc solution was obtained by using an eluent buffer B (100 mM citric acid, pH 3.0) to elute the IgG-Fc. The above-described protein purification by chromatography was carried out using AKTAprime plus system manufactured by GE Healthcare Company.
The analysis of the affinity between the low-molecular-weight compound and IgG-Fc was carried out using Biacore 3000, which was manufactured by GE Healthcare Company and in which surface plasmon resonance was utilized, under the following protocol. All of the sensor chip and reagents used in the following protocol were manufactured by GE Healthcare Company. The low-molecular-weight compounds (2) to (17) of which binding properties were evaluated were obtained from Namiki Shoji Co., Ltd.
The IgG-Fc obtained in the Example 1 was diluted 50-fold with a buffer for immobilization (10 mM CH3COOH—CH3COONa, pH 4.5), and the IgG-Fc was immobilized on a sensor chip CM5 in accordance with the protocol provided with Biacore 3000. The immobilization of the IgG-Fc on the sensor chip CM5 was carried out by amine coupling method using N-hydroxysuccinimide (NHS) and N-ethyl-N′-(3-dimethylaminopropyl)carbodiimide hydrochroride (EDC), and ethanolamine was used for blocking. In addition, a reference cell was prepared as a negative control by activating other flow cell on a chip by EDC/NHS and then immobilizing ethanolamine.
A ligand of any one of the low-molecular-weight compounds (2) to (17) was flowed on the above sensor chip to detect an interaction. Specifically, each of the low-molecular-weight compound (2) to (17) to be measured was diluted with a running buffer (20 mM NaH2PO4—Na2HPO4, 150 mM NaCl, 0.005% P-20, 5% DMSO, pH 7.4) to prepared three or four kinds of diluted solutions of which concentrations were different each other within the range of 25 μM to 100 μM with respect to each compound. The prepared solutions of the each low-molecular-weight compound were added to the sensor chip at a flow rate of 30 μL/min for 120 seconds. Binding reaction curves were orderly observed at the time of addition (binding phase, for 120 seconds) and after the addition (dissociation phase, for 120 second) at the measurement temperature of 25° C. After the each observation, 40 mM NaOH was added for 15 seconds to regenerate the sensor chip. A binding reaction curve of a sample containing DMSO was corrected using a Biacore correction tool manufactured by GE Healthcare Company with respect to the obtained binding curves (see FIGS. 1 to 4). […]
(In SPR one partner is held on a chip, and binding of the other changes the refractive index at the surface.)
For the compound `O=C(CSc1nnc2sc3ccccc3n12)c1ccc(O)c(O)c1` [(4)], the “KA × 10^4 (M^−1), coupling/binding constant KA=Kon/Koff” value is 5.1 × 10^4 M^−1.
For `CC(C)(c1ccc(O)cc1)c1cccc(C(C)(C)c2ccc(O)cc2)c1` [(6)] the value was 2.9 × 10^4 M^−1; for `Nc1ccc(Oc2nc(Oc3ccc(N)cc3)c(F)c(Oc3ccc(N)cc3)c2F)cc1` [(12)], 0.2 × 10^4 M^−1.
With `CN(c1ccc(O)cc1)c1nc(S(=O)(=O)c2ccccc2)c(Cl)s1` [(14)], the “KA × 10^4 (M^−1), coupling/binding constant KA=Kon/Koff” value is recorded as 0.16 × 10^4 M^−1.
For `O=C(CSc1nnc(SCc2cccc3ccccc23)s1)c1ccc(O)c(O)c1` [(5)] the value was 4.6 × 10^4 M^−1.
Then `Oc1ccc(-c2csc(COc3ccccc3)n2)cc1O` [(10)], with 0.4 × 10^4 M^−1; and `CN(c1ccc(O)cc1)c1ncc([N+](=O)[O-])c(N(C)c2ccc(O)cc2)n1` [(7)], with 0.96 × 10^4 M^−1; and `O=C1Sc2c(S(=O)(=O)Nc3ccc(O)cc3)cc(S(=O)(=O)Nc3ccc(O)cc3)c3cccc1c23` [(11)], with 0.37 × 10^4 M^−1.
For `Cc1cc(C(=O)CSc2nc(N)cc(N)n2)c(C)n1Cc1ccc2c(c1)OCO2` [(17)] the value was 0.05 × 10^4 M^−1; for `O=c1cc(CSc2ncnc3c2cnn3-c2ccccc2)c2cc(O)c(O)cc2o1` [compound (2)], 13 × 10^4 M^−1.
As for `Cc1ccc(C(=O)C(C)Sc2nnnn2-c2ccc(O)cc2)cc1` (stereo not shown) [(15)], the “KA × 10^4 (M^−1), coupling/binding constant KA=Kon/Koff” value was 0.12 × 10^4 M^−1.
For `CC(Sc1nnnn1-c1ccc(O)cc1)C(=O)c1ccc(F)c(F)c1` (stereo not shown) [(13)] the value was 0.17 × 10^4 M^−1; for `O=C(CSc1ncnc2c1cnn2-c1ccccc1)c1ccc(O)c(O)c1` [(3)], 5.1 × 10^4 M^−1; for `Cc1ccc(OCc2nc(CSc3nc(N)cc(N)n3)cs2)cc1` [(16)], 0.06 × 10^4 M^−1.
For `Nc1cccc(Oc2cccc(Oc3cccc(N)c3)c2)c1` [(8)] the value was 0.95 × 10^4 M^−1; for `O=C1N/C(=C\c2ccc(O)c(Br)c2)C(=O)N1Cc1ccc(Cl)cc1` [(9)], 0.48 × 10^4 M^−1.
